Patent publication EP3046573B1, “AMYLIN ANALOGUES” (Zealand Pharma A/S, priority 2013, dated 2015)
Where two headings read alike, the source gives them in different places. Numbered stars: 1 amine (or outer) side, 2 acyl side, 3 side chain; on linkers, the order of the positions; unused ones are H or OH. Bridge positions count the residues as written; N and C are the ends. Square brackets hold non-standard residues; d marks the D form. Peptide text beside a SMILES is read from it. * marks the point of attachment. C20 diacid = O=C(O)CCCCCCCCCCCCCCCCCCC(=O)*; γGlu = O=C(O)[C@H](CCC(=O)[*:2])N[*:1]; NMeI = CC[C@H](C)[C@H](NC)C(=O)O; Pip = O=C(O)[C@@H]1CCCCN1; Aze = O=C(O)[C@@H]1CCN1; Sar = CNCC(=O)O

What was measured:
[1] = target: T1, human amylin receptor 3 (hAMYR3) consisting of hCTR2 co-expressed with human Receptor Activity Modifying Protein 3 (hRAMP3) (Homo sapiens, UniProt O60896+P30988); experiment: hAMYR3 assay: induction of cAMP (AlphaScreen cAMP Assay kit) in COS7 cells expressing hAMYR3; type: cell-based
T1 construct: expressed in transfected cells
T1 sequence (P30988 25-474): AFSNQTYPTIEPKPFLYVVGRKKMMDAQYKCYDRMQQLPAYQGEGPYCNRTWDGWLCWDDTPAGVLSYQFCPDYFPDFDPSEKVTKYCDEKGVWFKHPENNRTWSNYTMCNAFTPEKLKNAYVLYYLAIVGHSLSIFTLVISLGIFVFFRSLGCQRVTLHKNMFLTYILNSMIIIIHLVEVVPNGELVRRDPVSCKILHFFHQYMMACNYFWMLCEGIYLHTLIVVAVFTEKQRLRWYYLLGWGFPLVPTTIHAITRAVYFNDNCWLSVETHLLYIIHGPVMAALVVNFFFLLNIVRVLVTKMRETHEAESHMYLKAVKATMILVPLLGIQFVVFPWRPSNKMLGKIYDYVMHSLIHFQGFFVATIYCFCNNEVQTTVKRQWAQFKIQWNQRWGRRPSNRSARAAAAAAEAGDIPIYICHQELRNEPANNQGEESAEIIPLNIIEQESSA
T1 sequence (O60896 24-148 partner): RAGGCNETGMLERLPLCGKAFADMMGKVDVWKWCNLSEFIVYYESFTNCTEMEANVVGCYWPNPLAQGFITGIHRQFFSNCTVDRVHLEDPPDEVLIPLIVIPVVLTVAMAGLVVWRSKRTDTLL
In short: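 Stable COS7 clone co-expressing hCTR2 and hRAMP3, stimulated 15 min at 37° C with increasing peptide in Tyrode buffer pH 7.4 with 100 µM IBMX and 0.1% casein. cAMP measured by AlphaScreen after lysis; EC50 and % efficacy versus pramlintide from 4PL fit.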

[2] = Solubility assessment (turbidity absorbance at 325 nm); type: physicochemical; settings: stock 2 mg/ml diluted 1:1, ambient temperature (typically 25°C), n=1; for Solubility, Acetate buffer pH 4: 100 mM acetate buffer pH 4.0; for Solubility, Acetate buffer pH 5: 100 mM acetate buffer pH 5.0; for Solubility, Histidine buffer pH 6: 100 mM histidine buffer pH 6.0; for Solubility, Histidine buffer pH 7: 100 mM histidine buffer pH 7.0; for Solubility, Phosphate buffer pH 6: 100 mM phosphate buffer pH 6.0; for Solubility, Phosphate buffer pH 7: 100 mM phosphate buffer pH 7.0; for Solubility, Phosphate buffer pH 7.5: 100 mM phosphate buffer pH7.5
In short: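 Peptide stock (2 mg/ml, water pH 2.5) diluted 1:1 into 100 mM acetate (pH 4.0, 5.0), histidine (pH 6.0, 7.0) or phosphate (pH 6.0–7.5) buffer; absorbance at 325 nm read at about 25°C, n=1. A325 ≤ 0.02 taken as solubility ≥ 1 mg/ml.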

[3] = target: T2, human calcitonin receptor (hCTR2) (Homo sapiens, UniProt P30988); experiment: hCTR2 assay: induction of cAMP (AlphaScreen cAMP Assay kit) in COS7 cells expressing hCTR2; type: cell-based
T2 construct: expressed in transfected cells
T2 sequence (P30988 25-474): T1 sequence (P30988 25-474)
In short: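 Functional agonism is measured as cAMP accumulation in a COS7 line stably transfected with hCTR2, lacking endogenous RAMPs. Peptides act for 15 min at 37° C with IBMX present, and curves are fitted with a 4-parameter logistic model.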

| EC50 ([1]; cAMP induction in COS7 cells expressing hAMYR3, average of a minimum of 3 determinations, read-out: hAMY R3 EC50) | EC50 ([3]; cAMP induction in COS7 cells expressing hCTR2, average of a minimum of 3 determinations, read-out: hCTR2 EC50) | SMILES | EC50 [1] | Solubility, Acetate buffer pH 4 [2] | Solubility, Acetate buffer pH 5 [2] | Solubility, Histidine buffer pH 6 [2] | Solubility, Histidine buffer pH 7 [2] | Solubility, Phosphate buffer pH 6 [2] | Solubility, Phosphate buffer pH 7 [2] | Solubility, Phosphate buffer pH 7.5 [2] | EC50 [3] |
| --- | --- | --- | --- | --- | --- | --- | --- | --- | --- | --- | --- |
|  |  | CC[C@H](C)[C@@H](C(=O)N[C@@H](CC(C)C)C(=O)N[C@@H](CO)C(=O)N[C@@H](CO)C(=O)N[C@H](C(=O)N[C@@H](CC(N)=O)C(=O)N[C@H](C(=O)NCC(=O)N[C@@H](CO)C(=O)N[C@@H](CC(N)=O)C(=O)N[C@H](C(=O)N(C)[C@H](C(N)=O)[C@@H](C)CC)[C@@H](C)O)C(C)C)[C@@H](C)O)N(C)C(=O)[C@H](C)NC(=O)CN(C)C(=O)[C@H](Cc1ccccc1)NC(=O)[C@H](CC(N)=O)NC(=O)[C@H](CC(N)=O)NC(=O)[C@H](CO)NC(=O)[C@H](CO)NC(=O)[C@H](CCCNC(=N)N)NC(=O)[C@H](Cc1c[nH]cn1)NC(=O)[C@H](CC(C)C)NC(=O)[C@H](Cc1ccccc1)NC(=O)[C@H](CCC(=O)O)NC(=O)[C@H](C)NC(=O)[C@H](CC(C)C)NC(=O)[C@H](CCCNC(=N)N)NC(=O)[C@H](CCC(N)=O)NC(=O)[C@@H](NC(=O)[C@H](C)NC(=O)[C@@H]1CSSC[C@H](NC(=O)[C@H](CCCNC(=N)N)NC(=O)CC[C@H](NC(=O)CCCCCCCCCCCCCCCCCCC(=O)O)C(=O)O)C(=O)N[C@@H](CC(N)=O)C(=O)N[C@@H]([C@@H](C)O)C(=O)N[C@@H](C)C(=O)N[C@@H]([C@@H](C)O)C(=O)N1)[C@@H](C)O [Compound 103, [19CD]-isoGlu-RC()NTATC()ATQRLAEFLHRSSNNF-Gly(Me)-A-Ile(Me)-LSSTNVGSNT-Ile(Me)-NH2H2] ({C20 diacid-γGlu}-RCNTATCATQRLAEFLHRSSNNF[Sar]A[NMeI]LSSTNVGSNT[NMeI]-NH2; disulfide 2-7) | 5.1 nM | SS (SS indicates solubility ≥ 1mg/ml) | SS (SS indicates solubility ≥ 1mg/ml) | SS (SS indicates solubility ≥ 1mg/ml) | SS (SS indicates solubility ≥ 1mg/ml) | II (II indicates solubility ≤ 1 mg/ml) | SS (SS indicates solubility ≥ 1mg/ml) | SS (SS indicates solubility ≥ 1mg/ml) | 0.65 nM |
|  |  | CC[C@H](C)[C@@H](C(=O)N[C@@H](CC(C)C)C(=O)N[C@@H](CO)C(=O)N[C@@H](CO)C(=O)N[C@H](C(=O)N[C@@H](CC(N)=O)C(=O)N[C@H](C(=O)NCC(=O)N[C@@H](CO)C(=O)N[C@@H](CC(N)=O)C(=O)N[C@H](C(=O)N1CCC[C@@H]1C(N)=O)[C@@H](C)O)C(C)C)[C@@H](C)O)N(C)C(=O)[C@H](C)NC(=O)CN(C)C(=O)[C@H](Cc1ccccc1)NC(=O)[C@H](CC(N)=O)NC(=O)[C@H](CC(N)=O)NC(=O)[C@H](CO)NC(=O)[C@H](CO)NC(=O)[C@H](CCCNC(=N)N)NC(=O)[C@H](Cc1c[nH]cn1)NC(=O)[C@H](CC(C)C)NC(=O)[C@H](Cc1ccccc1)NC(=O)[C@H](CCC(=O)O)NC(=O)[C@H](C)NC(=O)[C@H](CC(C)C)NC(=O)[C@H](CCCNC(=N)N)NC(=O)[C@H](CCC(N)=O)NC(=O)[C@@H](NC(=O)[C@H](C)NC(=O)[C@@H]1CSSC[C@H](NC(=O)[C@H](CCCNC(=N)N)NC(=O)CC[C@H](NC(=O)CCCCCCCCCCCCCCCCCCC(=O)O)C(=O)O)C(=O)N[C@@H](CC(N)=O)C(=O)N[C@@H]([C@@H](C)O)C(=O)N[C@@H](C)C(=O)N[C@@H]([C@@H](C)O)C(=O)N1)[C@@H](C)O [Compound 104, [19CD]-isoGlu-RC()NTATC()ATQRLAEFLHRSSNNF-Gly(Me)-A-Ile(Me)-LSSTNVGSNT-DPro-NH2] ({C20 diacid-γGlu}-RCNTATCATQRLAEFLHRSSNNF[Sar]A[NMeI]LSSTNVGSNT[dP]-NH2; disulfide 2-7) | 4.8 nM | SS (SS indicates solubility ≥ 1mg/ml) | SS (SS indicates solubility ≥ 1mg/ml) | SS (SS indicates solubility ≥ 1mg/ml) | SS (SS indicates solubility ≥ 1mg/ml) | II (II indicates solubility ≤ 1 mg/ml) | SS (SS indicates solubility ≥ 1mg/ml) | SS (SS indicates solubility ≥ 1mg/ml) | 0.7 nM |
| 0.67 nM | 0.32 nM | CC[C@H](C)[C@@H](C(=O)N[C@@H](CC(C)C)C(=O)N[C@@H](CO)C(=O)N[C@@H](CO)C(=O)N[C@H](C(=O)N[C@@H](CC(N)=O)C(=O)N[C@H](C(=O)NCC(=O)N[C@@H](CO)C(=O)N[C@@H](CC(N)=O)C(=O)N[C@H](C(=O)N1CC[C@H]1C(N)=O)[C@@H](C)O)C(C)C)[C@@H](C)O)N(C)C(=O)CN(C)C(=O)[C@H](Cc1ccccc1)NC(=O)[C@H](CC(N)=O)NC(=O)[C@H](CC(N)=O)NC(=O)[C@H](CO)NC(=O)[C@H](CO)NC(=O)[C@H](CCCNC(=N)N)NC(=O)[C@H](Cc1c[nH]cn1)NC(=O)[C@H](CC(C)C)NC(=O)[C@H](Cc1ccccc1)NC(=O)[C@H](CCC(=O)O)NC(=O)[C@H](C)NC(=O)[C@H](CC(C)C)NC(=O)[C@H](CCCNC(=N)N)NC(=O)[C@H](CCC(N)=O)NC(=O)[C@@H](NC(=O)[C@H](C)NC(=O)[C@@H]1CSSC[C@H](NC(=O)[C@H](CCCNC(=N)N)NC(=O)CC[C@H](NC(=O)CCCCCCCCCCCCCCCCCCC(=O)O)C(=O)O)C(=O)N[C@@H](CC(N)=O)C(=O)N[C@@H]([C@@H](C)O)C(=O)N[C@@H](C)C(=O)N[C@@H]([C@@H](C)O)C(=O)N1)[C@@H](C)O [Compound 108, [19CD]-isoGlu-RC()NTATC()ATQRLAEFLHRSSNNF-Gly(Me)-Ile(Me)-LSSTNVGSNT-Aze-NH2] ({C20 diacid-γGlu}-RCNTATCATQRLAEFLHRSSNNF[Sar][NMeI]LSSTNVGSNT[Aze]-NH2; disulfide 2-7) |  | SS (SS indicates solubility ≥ 1mg/ml) | SS (SS indicates solubility ≥ 1mg/ml) | SS (SS indicates solubility ≥ 1mg/ml) | SS (SS indicates solubility ≥ 1mg/ml) | SS (SS indicates solubility ≥ 1mg/ml) | SS (SS indicates solubility ≥ 1mg/ml) | SS (SS indicates solubility ≥ 1mg/ml) |  |
|  |  | CC[C@H](C)[C@@H](C(=O)N[C@@H](CC(C)C)C(=O)N[C@@H](CO)C(=O)N[C@@H](CO)C(=O)N[C@H](C(=O)N[C@@H](CC(N)=O)C(=O)N[C@H](C(=O)NCC(=O)N[C@@H](CO)C(=O)N[C@@H](CC(N)=O)C(=O)N[C@H](C(=O)N1CCCC[C@H]1C(N)=O)[C@@H](C)O)C(C)C)[C@@H](C)O)N(C)C(=O)[C@H](C)NC(=O)CN(C)C(=O)[C@H](Cc1ccccc1)NC(=O)[C@H](CC(N)=O)NC(=O)[C@H](CC(N)=O)NC(=O)[C@H](CO)NC(=O)[C@H](CO)NC(=O)[C@H](CCCNC(=N)N)NC(=O)[C@H](Cc1c[nH]cn1)NC(=O)[C@H](CC(C)C)NC(=O)[C@H](Cc1ccccc1)NC(=O)[C@H](CCC(=O)O)NC(=O)[C@H](C)NC(=O)[C@H](CC(C)C)NC(=O)[C@H](CCCNC(=N)N)NC(=O)[C@H](CCC(N)=O)NC(=O)[C@@H](NC(=O)[C@H](C)NC(=O)[C@@H]1CSSC[C@H](NC(=O)[C@H](CCCNC(=N)N)NC(=O)CC[C@H](NC(=O)CCCCCCCCCCCCCCCCCCC(=O)O)C(=O)O)C(=O)N[C@@H](CC(N)=O)C(=O)N[C@@H]([C@@H](C)O)C(=O)N[C@@H](C)C(=O)N[C@@H]([C@@H](C)O)C(=O)N1)[C@@H](C)O [Compound 109, [19CD]-isoGlu-RC()NTATC()ATQRLAEFLHRSSNNF-Gly(Me)-A-Ile(Me)-LSSTNVGSNT-Pip-NH2] ({C20 diacid-γGlu}-RCNTATCATQRLAEFLHRSSNNF[Sar]A[NMeI]LSSTNVGSNT[Pip]-NH2; disulfide 2-7) | 0.52 nM | SS (SS indicates solubility ≥ 1mg/ml) | SS (SS indicates solubility ≥ 1mg/ml) | SS (SS indicates solubility ≥ 1mg/ml) | SS (SS indicates solubility ≥ 1mg/ml) | II (II indicates solubility ≤ 1 mg/ml) | SS (SS indicates solubility ≥ 1mg/ml) | SS (SS indicates solubility ≥ 1mg/ml) | 0.3 nM |
